Our source for the TGI and GI50 values is PubChem BioAssay (NCI).

Among the test systems are TK-10 renal; NCI/ADR-RES ovarian; PC-3 prostate; SF-295 CNS; LOX IMVI melanoma; CCRF-CEM leukemia; NCI-H23 lung; HCC-2998 colon; SNB-75 CNS; HS 578T breast.
Holding throughout (experiment): NCI tumour cell line growth inhibition, 48 h

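Growth conditions: 96-well plates. Treatment: test compound, 48 hours, 5 concentrations. Analysis: linear interpolation between bracketing concentrations; unreached endpoints set to highest concentration. GI50 = concentration required for 50% inhibition of growth. TGI: total growth inhibition.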

For the compound `O=C(c1ccc2ccccc2c1)C1S(=O)(=O)OCCOS1(=O)=O`, the TGI in the experiment on TK-10 renal, with NCI/ADR-RES ovarian, with PC-3 prostate, in the experiment on SF-295 CNS, with LOX IMVI melanoma and with CCRF-CEM leukemia was > 100 µM each time. In addition, the TGI with NCI-H23 lung and with HCC-2998 colon was > 100 µM each time.

Take `CC(C)(C)N=C1CC(C)(C)c2ccccc2C(=Nc2ccccc2)S1`: the TGI in the experiment with TK-10 renal is > 100 µM; with SF-295 CNS, > 100 µM; in the experiment with LOX IMVI melanoma, 40.1 µM; in the experiment with SNB-75 CNS, > 100 µM; with CCRF-CEM leukemia, > 100 µM; in the experiment on NCI-H23 lung, 98.6 µM. Besides, in the experiment with HCC-2998 colon, the TGI was > 100 µM.

`Nc1nc(Cl)cc(N=Nc2ccccc2)n1`: the TGI in the experiment with TK-10 renal was > 100 µM; in the experiment with NCI/ADR-RES ovarian, > 100 µM; with HS 578T breast it was > 100 µM; in the experiment with SF-295 CNS, > 100 µM; in the experiment on LOX IMVI melanoma, 67 µM; in the experiment with SNB-75 CNS, > 100 µM. The TGI is > 100 µM with CCRF-CEM leukemia and 55.5 µM in the experiment on NCI-H23 lung.

On to `COc1ccc(C2OC(=O)c3c2ccc2ccccc32)c(C)c1` (stereo not drawn), for which the TGI in the experiment with TK-10 renal was 17.7 µM; in the experiment with PC-3 prostate, 97.1 µM; in the experiment on HS 578T breast, > 100 µM; with SNB-75 CNS it was 30.6 µM; in the experiment on NCI-H23 lung it was > 100 µM; in the experiment on HCC-2998 colon it was 3.34 µM.

In the case of `COC(=O)[C@H](C)N1C(=O)N[C@@H](C(C)C)C1=O`, the TGI in the experiment on TK-10 renal, in the experiment on NCI/ADR-RES ovarian, in the experiment with PC-3 prostate, in the experiment with SF-295 CNS, in the experiment on LOX IMVI melanoma and in the experiment on SNB-75 CNS was > 100 µM each time. Further, the TGI in the experiment with CCRF-CEM leukemia, in the experiment on NCI-H23 lung and in the experiment on HCC-2998 colon was > 100 µM throughout.

Take `COc1cccc(NC(=O)CSc2nnc(-c3ccc(N=Cc4ccc(Cl)cc4)cc3)o2)c1`: the TGI with TK-10 renal was 74.3 µM; in the experiment on SF-295 CNS it was 43.5 µM; with LOX IMVI melanoma, 37.7 µM; with SNB-75 CNS, 66.3 µM; in the experiment with CCRF-CEM leukemia, > 100 µM; in the experiment on NCI-H23 lung, 41.1 µM.

With `O=C1c2[nH]cc(CN3CCNCC3)c2C(=O)c2c1c(O)c1ccccc1c2O`, the GI50 in the experiment on TK-10 renal was 6.5 µM; in the experiment on PC-3 prostate, 1.83 µM; in the experiment with SF-295 CNS it was 1.74 µM; in the experiment on SNB-75 CNS it was 15.4 µM; in the experiment with HCC-2998 colon, 1.18 µM. Besides, the TGI turned out to be 12.2 µM with TK-10 renal; 4.41 µM with PC-3 prostate; 3.37 µM in the experiment with SF-295 CNS; 37.8 µM with SNB-75 CNS; 2.88 µM in the experiment with HCC-2998 colon.

Take `CN1CCn2c(Br)ccc2C1=O`: the TGI with TK-10 renal, in the experiment on SF-295 CNS, with LOX IMVI melanoma, in the experiment with CCRF-CEM leukemia, in the experiment with NCI-H23 lung and in the experiment with HCC-2998 colon was > 100 µM in each case.

With `O=S1(=O)NNC(=NCc2ccc(Cl)cc2)c2ccccc21`, the TGI in the experiment on SF-295 CNS, with LOX IMVI melanoma, with CCRF-CEM leukemia and in the experiment with HCC-2998 colon was > 100 µM throughout.

For `COc1cc([C@@H]2c3cc4c(cc3[C@@H](NC(=O)c3ccc(N)cc3)C3COC(=O)[C@@H]32)OCO4)cc(OC)c1O` (stereo partly drawn), the TGI with TK-10 renal is 29.7 µM; in the experiment on SF-295 CNS, 95.8 µM; in the experiment with LOX IMVI melanoma, 18.7 µM; in the experiment on SNB-75 CNS it was 6.56 µM; with CCRF-CEM leukemia, 13.1 µM; in the experiment on NCI-H23 lung, 4.97 µM. Also, the TGI in the experiment with HCC-2998 colon turned out to be 17.2 µM.

For the compound `O=C1/C(=C/c2ccccc2)CCc2ccc(Cl)nc21`, the TGI with TK-10 renal was 32.7 µM; with NCI/ADR-RES ovarian, > 63.7 µM; in the experiment with PC-3 prostate, 29.9 µM; in the experiment with SF-295 CNS, 38.2 µM; in the experiment with SNB-75 CNS it was 47.5 µM; in the experiment with CCRF-CEM leukemia, 5.75 µM. Moreover, the TGI in the experiment with NCI-H23 lung was 45.5 µM; in the experiment on HCC-2998 colon it was 48.4 µM.

On to `O=c1[nH]c(=O)n(C2OC(COP(=O)(O)OP(=O)(O)O)C(O)C2O)cc1F` (stereo not drawn), for which the TGI is > 50 µM with TK-10 renal; > 50 µM with SF-295 CNS; 23 µM with LOX IMVI melanoma; > 50 µM with SNB-75 CNS; > 50 µM in the experiment on CCRF-CEM leukemia; > 50 µM in the experiment with NCI-H23 lung. In addition, the TGI in the experiment on HCC-2998 colon was > 50 µM.

For the compound `CCCCc1c2c(nc3c1CCc1cc4c(nc1-3)-c1nc3c(c(CCCC)c1CC4)CCC/C3=C\c1ccccc1)/C(=C/c1ccccc1)CCC2`, the TGI in the experiment with TK-10 renal, with SF-295 CNS, in the experiment on LOX IMVI melanoma, with CCRF-CEM leukemia, in the experiment with NCI-H23 lung and with HCC-2998 colon was > 100 µM each time.

With `CC1=CC(O)C(O)C2(C)C1CC1OC(=O)C(O)C3C(C)C(O)C4(O)OCC13C42` (stereo not drawn), the TGI with NCI/ADR-RES ovarian was > 625 µM; with SF-295 CNS, 364 µM; in the experiment on LOX IMVI melanoma, 156 µM; in the experiment on SNB-75 CNS, 33.3 µM; with CCRF-CEM leukemia, 96.9 µM; in the experiment on NCI-H23 lung it was 250 µM. The same compound showed a TGI with HCC-2998 colon of 126 µM.

As to `COC(=O)c1ccc(-c2nc(C#N)c(N)o2)cc1`, the TGI in the experiment on TK-10 renal, with PC-3 prostate, in the experiment with HS 578T breast, in the experiment on SF-295 CNS, in the experiment on LOX IMVI melanoma and in the experiment on CCRF-CEM leukemia was > 100 µM each time. Besides, in the experiment on NCI-H23 lung, the TGI is > 100 µM.

Consider `CC(CCC(=O)O)[C@H]1CCC2[C@H]3C(CC[C@@]21C)[C@@]1(C)CCC(O)C[C@H]1C[C@@H]3O` (stereo partly drawn), for which the TGI in the experiment with TK-10 renal, in the experiment with NCI/ADR-RES ovarian, with PC-3 prostate, with LOX IMVI melanoma, in the experiment on SNB-75 CNS and in the experiment with CCRF-CEM leukemia was > 100 µM in each case. Moreover, the TGI in the experiment with NCI-H23 lung and in the experiment on HCC-2998 colon was > 100 µM in each case.

Consider `Cc1cccc(NC(=O)C(=O)C2C(=O)NC(=O)NC2=O)c1C`, for which the TGI in the experiment on TK-10 renal, in the experiment with SF-295 CNS, in the experiment on LOX IMVI melanoma, in the experiment on SNB-75 CNS, with CCRF-CEM leukemia and with NCI-H23 lung was > 100 µM throughout. The TGI in the experiment on HCC-2998 colon was > 100 µM.

For the compound `O=C(N/N=C(/c1nc2ccc(Cl)cc2[nH]c1=O)C(O)c1ccc(Cl)cc1Cl)c1ccncc1` (stereo not drawn), the TGI in the experiment with TK-10 renal, in the experiment with SF-295 CNS, with LOX IMVI melanoma, with SNB-75 CNS, in the experiment with CCRF-CEM leukemia and with NCI-H23 lung was > 100 µM each time. Also, the TGI in the experiment with HCC-2998 colon was > 100 µM.

In the case of `COc1cc(C2C3=C(CCC3=O)Oc3cc4c(cc32)OCO4)cc(OC)c1OC` (stereo not drawn), the TGI with TK-10 renal is 69.2 µM; with SF-295 CNS it was 0.532 µM; in the experiment on LOX IMVI melanoma, > 100 µM; with SNB-75 CNS, 0.481 µM; with CCRF-CEM leukemia, > 100 µM; with NCI-H23 lung, > 100 µM.

Consider `COc1ccc(/C=C2\Cc3ccccc3C2=O)cc1OC`, for which the TGI in the experiment on TK-10 renal, in the experiment on SF-295 CNS, in the experiment with CCRF-CEM leukemia, in the experiment with NCI-H23 lung and with HCC-2998 colon was > 100 µM in each case.

Regarding `NC(Cc1cc(I)c(O)c(I)c1)C(=O)O` (stereo not drawn), the TGI in the experiment with NCI/ADR-RES ovarian was > 316 µM; with SF-295 CNS it was > 500 µM; with LOX IMVI melanoma, > 361 µM; with SNB-75 CNS, > 330 µM; with CCRF-CEM leukemia, > 500 µM; in the experiment on NCI-H23 lung it was > 356 µM. Further, in the experiment with HCC-2998 colon, the TGI is > 500 µM.

For the compound `CN(C)CCOC(=O)COc1ccc(Cl)cc1`, the TGI in the experiment with NCI/ADR-RES ovarian, with PC-3 prostate, with SF-295 CNS, in the experiment on LOX IMVI melanoma, in the experiment with SNB-75 CNS and with CCRF-CEM leukemia was > 100 µM each time. Also, the TGI with NCI-H23 lung and in the experiment on HCC-2998 colon was > 100 µM in each case.

Regarding `Cc1nc(C)c(C(=O)Nc2cccc3c2C(=O)NC3=O)cc1C(=O)Nc1cccc2c1C(=O)NC2=O`, the TGI with TK-10 renal, in the experiment on SF-295 CNS, in the experiment with LOX IMVI melanoma, with SNB-75 CNS, in the experiment with CCRF-CEM leukemia and in the experiment with NCI-H23 lung was > 100 µM in each case. Besides, in the experiment on HCC-2998 colon, the TGI is > 100 µM.

On to `CC1(O)C=CC2CCC1C2O` (stereo not drawn), for which the TGI was > 100 µM with TK-10 renal; > 100 µM with SF-295 CNS; 35.9 µM with LOX IMVI melanoma; > 100 µM in the experiment with SNB-75 CNS; > 100 µM in the experiment on CCRF-CEM leukemia; > 100 µM in the experiment on NCI-H23 lung.

In the case of `CC(NC(=O)/C(=C/c1ccccc1O)NC(=O)c1ccccc1)C(=O)O` (stereo not drawn), the TGI in the experiment with TK-10 renal is > 100 µM; in the experiment with NCI/ADR-RES ovarian, 33.4 µM; in the experiment on HS 578T breast it was 38.2 µM; with SF-295 CNS, 38.8 µM; in the experiment with LOX IMVI melanoma it was > 100 µM; in the experiment with SNB-75 CNS, 31.1 µM. Also, the TGI with CCRF-CEM leukemia is > 100 µM; with NCI-H23 lung it was > 100 µM; with HCC-2998 colon, 76.2 µM.

With `CC1(C)COC(c2cccc(C3=NC(C)(C)CO3)c2Br)=N1`, the TGI in the experiment with TK-10 renal, in the experiment on NCI/ADR-RES ovarian, in the experiment on PC-3 prostate, in the experiment on LOX IMVI melanoma, in the experiment with SNB-75 CNS and in the experiment with NCI-H23 lung was > 100 µM throughout. In the experiment on HCC-2998 colon, the TGI is > 100 µM.
